Results published in patent US4966900A, “Cephalosporin β-lactam compound and medicinal composition” (priority 1986, dated 1990).
Structures can show the parent of a compound that is named as a salt. Where two headings read alike, the source gives them in different places.

Columns and labels:
[1] = central and tissue distribution volume in Macaco (parenteral, HPLC); type: in vivo; conditions: monkey, blood, 20 mg/kg, 20 mg/kg parenteral, sodium salt
Method: 20 mg/kg of the compound obtained in Example 1 was administered parenterally to Macaco and a central distribution volume and a tissue distribution volume were calculated by their concentrations in blood measured with time.
The concentration of the compound was measured according to HPLC method. Microbondapack C18 (trade name, produced by Waters Co.) was used as a column and 8% acetonitrile-2% tetrahydrofuran-0.2% phosphoric acid was used as a solvent.

E. cloacae 1Y247 = assay: MIC; type: cell-based; conditions: Enterobacter cloacae, Table 3, sodium salt, read-out: MIC
Method: The minimum inhibition concentrations (MIC) of the compounds obtained in the respective examples described above were measured according to the standard method of Japanese Chemotherapy Association.

A. calcoaceticu OF1063 = assay: MIC; type: cell-based; conditions: Table 2, sodium salt
Method: (§1) The minimum inhibition concentrations (MIC) of the compounds obtained in Example 1 and Example 2 were measured according to the standard method of Japanese Chemotherapy Association.

A. xylosoxidans OF1001 = assay: MIC; type: cell-based; conditions: Achromobacter xylosoxidans, Table 2, sodium salt
Method: as §1

E. coli NIHJ JC-2 = assay: MIC; type: cell-based; conditions: Escherichia coli, NIHJJC2, Table 2, sodium salt
Method: as §1

S. aureus Smith = assay: MIC; conditions: Staphylococcus aureus, Table 2, sodium salt
E. coli ML4707 = assay: MIC; conditions: Escherichia coli, ML4707, E. coli ML4707; Table 2, sodium salt
E. coli GN5482 = assay: MIC; conditions: Escherichia coli, GN5482, E. coli GN5482; Table 2, sodium salt
K. pneumoniae 4at521 = assay: MIC; conditions: Klebsiella pneumoniae, 4AT521
E. colacae GN7471 = assay: MIC; conditions: Table 2, sodium salt
E. cloacae 908RN = assay: MIC; conditions: Enterobacter cloacae
C. freundii GN7391 = assay: MIC; conditions: Citrobacter freundii, GN7391, C. freundii GN7391
S. marcescens GN10857 = assay: MIC; conditions: Serratia marcescens, GN10857, S. marcescens GN10857; Table 2, sodium salt
P. vulgaris GN7919 = assay: MIC; conditions: Proteus vulgaris, GN7919
P. aeruginosa GN10362 = assay: MIC; conditions: Pseudomonas aeruginosa, GN10362
P. aeruginosa 4au542 = assay: MIC; conditions: Pseudomonas aeruginosa, 4AU542, P. aeruginosa 4au542; Table 2, sodium salt
P. aeruginosa 5D58-1 = assay: MIC; conditions: Pseudomonas aeruginosa, 5D581, P. aeruginosa 5D58-1; Table 2, sodium salt
P. cepacia OF189 = assay: MIC; conditions: Burkholderia cepacia, OF189, P. cepacia OF189; Table 2, sodium salt
P. maltophilia OF247 = assay: MIC; conditions: Stenotrophomonas maltophilia, Table 2, sodium salt
E. cloacae 5D52-2 = assay: MIC; conditions: Enterobacter cloacae, 5D522
E. cloacae 5D63-2 = assay: MIC; conditions: Enterobacter cloacae, 5D632
E. cloacae 1V25 = assay: MIC; conditions: Enterobacter cloacae
C. freundii 5D60-1 = assay: MIC; conditions: Citrobacter freundii, 5D601
C. freundii 1R523 = assay: MIC; conditions: Citrobacter freundii, 1R523
C. freundii 1R524 = assay: MIC; conditions: Citrobacter freundii, 1R524
C. freundii 1R526 = assay: MIC; conditions: Citrobacter freundii, 1R526
C. freundii 1R527 = assay: MIC; conditions: Citrobacter freundii, 1R527
C. freundii 1U589 = assay: MIC; conditions: Citrobacter freundii, 1U589
C. freundii 1U692 = assay: MIC; conditions: Citrobacter freundii, 1U692

CC(C)(ON=C(C(=O)NC1C(=O)N2C(C(=O)O)=C(COC(N)=O)CSC12)c1csc(N)n1)C(=O)NNC(=O)c1ccc(O)c(O)c1 (centres unmarked) [Example 1, 7-{2-[2-amino-1,3-thiazol-4-yl]-2-[1-(3-(3,4-dihydroxybenzoyl)carbazoyl)-1-methylethoxyimino]acetamide}-3-carbamoyloxymethyl-3-cephem-4-carboxylic acid.hydrochloride]
Vd ([1]; read-out: Central distribution volume): 0.144 L/kg | Vd ([1]; read-out: Tissue distribution volume): 0.295 L/kg | MIC (E. cloacae 1Y247): > 100 µg/mL | MIC (A. calcoaceticu OF1063): 3.13 µg/mL | MIC (A. xylosoxidans OF1001): 1.56 µg/mL | MIC (E. coli NIHJ JC-2): 0.1 µg/mL | MIC (S. aureus Smith): 6.26 µg/mL | MIC (E. coli ML4707): 0.025 µg/mL | MIC (E. coli GN5482): 1.56 µg/mL | MIC (K. pneumoniae 4at521): 0.012 µg/mL | MIC (E. colacae GN7471): 25 µg/mL | MIC (E. cloacae 908RN; E. cloacae 908RN, Table 3, sodium salt): > 100 µg/mL | MIC (E. cloacae 908RN; E. colacae 908RN, Table 2, sodium salt): > 100 µg/mL | MIC (C. freundii GN7391; Table 2, sodium salt): > 100 µg/mL | MIC (C. freundii GN7391; Table 3, sodium salt): > 100 µg/mL | MIC (S. marcescens GN10857): 0.78 µg/mL | MIC (P. vulgaris GN7919): 3.13 µg/mL | MIC (P. aeruginosa GN10362): 0.05 µg/mL | MIC (P. aeruginosa 4au542): 0.05 µg/mL | MIC (P. aeruginosa 5D58-1): 0.2 µg/mL | MIC (P. cepacia OF189): 0.025 µg/mL | MIC (P. maltophilia OF247): 0.78 µg/mL | MIC (E. cloacae 5D52-2): 25 µg/mL | MIC (E. cloacae 5D63-2): 50 µg/mL | MIC (E. cloacae 1V25): 50 µg/mL | MIC (C. freundii 5D60-1): 50 µg/mL | MIC (C. freundii 1R523): 25 µg/mL | MIC (C. freundii 1R524): 12.5 µg/mL | MIC (C. freundii 1R526): 25 µg/mL | MIC (C. freundii 1R527): 12.5 µg/mL | MIC (C. freundii 1U589): 12.5 µg/mL | MIC (C. freundii 1U692): 25 µg/mL
